One cell line from the supplement of paper PMC10307832 can be followed below.

What all share (experiment): relative viability (nuclei count vs DMSO), 5 days (fraction); higher = more cells survive
Compound in the test “Vismodegib + Decitabine”: CS(=O)(=O)c1ccc(C(=O)Nc2ccc(Cl)c(-c3ccccn3)c2)c(Cl)c1 [Vismodegib] + Nc1ncn([C@H]2C[C@H](O)[C@@H](CO)O2)c(=O)n1 [Decitabine] (partner 2 µM)
In a few lines:
(§1)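 Each reported value is a median over duplicate plates. It expresses relative viability: treated-well nuclei count divided by vehicle-well nuclei count. Lung cancer cell lines in 1536-well plates were dosed by pin tool a day after seeding, alone with one drug or with a fixed anchor-drug dose plus five library-drug doses (not always all listed) in √10 steps, and nuclei were counted after 5 days.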

Compound in the test “VE-821 + Palbociclib”: CS(=O)(=O)c1ccc(-c2cnc(N)c(C(=O)Nc3ccccc3)n2)cc1 [VE-821] + CC(=O)c1c(C)c2cnc(Nc3ccc(N4CCNCC4)cn3)nc2n(C2CCCC2)c1=O [Palbociclib] (partner 0.5 µM)
Put shortly: as §1

Compound in the test “Ruxolitinib + Vorinostat”: N#CC[C@H](C1CCCC1)n1cc(-c2ncnc3[nH]ccc23)cn1 [Ruxolitinib] + O=C(CCCCCCC(=O)Nc1ccccc1)NO [Vorinostat] (partner 1 µM)
Put shortly:
as §1

Compound in the test “Ruxolitinib + Pictilisib”: N#CC[C@H](C1CCCC1)n1cc(-c2ncnc3[nH]ccc23)cn1 [Ruxolitinib] + CS(=O)(=O)N1CCN(Cc2cc3nc(-c4cccc5[nH]ncc45)nc(N4CCOCC4)c3s2)CC1 [Pictilisib] (partner 1 µM)
Put shortly:
as §1

As to UMC-11, the relative viability with Vismodegib + Decitabine (first compound 0.08 µM) is 0.623; with Vismodegib + Decitabine (first compound 0.253 µM), 0.579; with Vismodegib + Decitabine (first compound 0.8 µM), 0.489; with Vismodegib + Decitabine (first compound 2.53 µM), 0.457; with Vismodegib + Decitabine (first compound 8 µM) it was 0.53; with VE-821 + Palbociclib (first compound 0.08 µM) it was 0.339. Further, the relative viability with VE-821 + Palbociclib (first compound 0.253 µM) came to 0.309; with VE-821 + Palbociclib (first compound 0.8 µM), 0.338; with VE-821 + Palbociclib (first compound 2.53 µM) it was 0.377; with VE-821 + Palbociclib (first compound 8 µM), 0.299; in the test with Ruxolitinib + Vorinostat (first compound 0.08 µM), 0.362; in the test with Ruxolitinib + Vorinostat (first compound 0.253 µM), 0.384. Further, the relative viability with Ruxolitinib + Vorinostat (first compound 0.8 µM) came to 0.452; with Ruxolitinib + Vorinostat (first compound 2.53 µM), 0.48; in the test with Ruxolitinib + Vorinostat (first compound 8 µM) it was 0.386; with Ruxolitinib + Pictilisib (first compound 0.08 µM), 0.738; with Ruxolitinib + Pictilisib (first compound 0.253 µM), 0.853; in the test with Ruxolitinib + Pictilisib (first compound 0.8 µM), 1.05. For the same cell line, the relative viability was found to be 0.958 with Ruxolitinib + Pictilisib (first compound 2.53 µM) and 0.927 with Ruxolitinib + Pictilisib (first compound 8 µM).
